Measured values published in patent publication US10023565B2, “N,N′ substituted piperidinamine compounds, and preparation method and usage thereof” (Institute of Pharmacology and Toxicology Academy of …, priority 2013, dated 2018).

Experiments:
[1] = test system: Huh-7; test: Extended test against tumor cell lines (ATPlite); type: cell-based; conditions: Huh-7 (liver cancer), 72 hours
Description: (§1) The compounds of Examples 36/37/40/47/49 were used to carry out extended test against tumor cell lines, wherein 12 kinds of cells were selected, including liver cancer cells, gastric cancer cells, pancreatic cancer cells, colorectal cancer cells, lung cancer cells and normal cells, which were shown in Table 12:
(§2) A 100 mm culture dish with overgrown adherent cells was digested with 1 ml 0.25% trypsin (GIBCO) at 37° C. for 5 min, and the reaction was terminated with 2 ml culture medium (containing 10% FBS, GIBCO). The cells were scattered and collected, after counting, diluted to 1×10^5 cells/ml, and seeded into a 96-well plate at 50 μl/well, 5000 cells/well, excluding the peripheral circle of wells in which no cell was added, but PBS was added, 54 wells in total, and then incubated at 37° C. for 24 hours for adhering.
(§3) The test sample was diluted to final concentration of 4, 1, 0.25, 0.063, 0.016 μM, culture medium was filled in control well, 3 parellel wells were set for each concentration, 50 μl each well, followed by incubation at 37° C. for 72 hours.
(§4) 3) Test after incubation at 37° C. for 72 hours: 50 μL of ATPlite kitsubstrate solution was added in each well, and vibrated for 3 min, followed by placing aside in darkness for 10 min, and then supernatant 100 μl/well was taken and placed on a luminescence test plate; the luminescence test plate that has been fully incubated was placed in a luminescence test instrument, to read luminescence value.
(§5) Cell survival rate (%)=Experimental group RLU/control group RLU×100%. The experimental data were subjected to data analysis and processing by utilizing GraphPad software.

[2] = test system: H460; test: Extended test against tumor cell lines (ATPlite); type: cell-based; conditions: H460 (lung cancer), 72 hours
Description: as §1, §2, §3, §4, §5

[3] = test system: A549; test: Extended test against tumor cell lines (ATPlite); type: cell-based; conditions: A549 (lung cancer), 72 hours
Description: as §1, §2, §3, §4, §5

[4] = test system: WI-38 (human embryonic lung fibroblast); test: Extended test against tumor cell lines (ATPlite); type: cell-based; conditions: WI-38 (normal cells), 72 hours
Description: as §1, §2, §3, §4, §5

[5] = test system: BGC823; test: Extended test against tumor cell lines (ATPlite); type: cell-based; conditions: BGC823 (gastric cancer), 72 hours
Description: as §1, §2, §3, §4, §5

[6] = test system: COLO205; test: Extended test against tumor cell lines (ATPlite); type: cell-based; conditions: COLO205 (colorectal cancer), 72 hours
Description: as §1, §2, §3, §4, §5

[7] = test system: HepG2; test: Extended test against tumor cell lines (ATPlite); type: cell-based; conditions: HepG2 (liver cancer), 72 hours
Description: as §1, §2, §3, §4, §5

[8] = test system: MRC5 (lung epithelial fibroblast); test: Extended test against tumor cell lines (ATPlite); type: cell-based; conditions: MRC5 (normal cells), 72 hours
Description: as §1, §2, §3, §4, §5

[9] = test system: AsPC-1; test: Extended test against tumor cell lines (ATPlite); type: cell-based; conditions: AsPC-1 (pancreatic cancer), 72 hours
Description: as §1, §2, §3, §4, §5

[10] = test system: HT-29; test: Extended test against tumor cell lines (ATPlite); type: cell-based; conditions: HT-29 (colorectal cancer), 72 hours
Description: as §1, §2, §3, §4, §5

[11] = test system: N87; test: Extended test against tumor cell lines (ATPlite); type: cell-based; conditions: N87 (gastric cancer), 72 hours
Description: as §1, §2, §3, §4, §5

[12] = test system: MIA-PaCa-2; test: Extended test against tumor cell lines (ATPlite); type: cell-based; conditions: MIA-PaCa-2 (pancreatic cancer), 72 hours
Description: as §1, §2, §3, §4, §5

[13] = test system: BT/Lap^R1.0; test: Antitumor bioactivity evaluation, breast cancer cells (ATPlite); type: cell-based, human; conditions: Homo sapiens
Outline: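 Cells seeded at 5000/well, allowed to adhere 24 h at 37° C, then treated with test compound at final 5 μM, alone or combined with lapatinib at final 1 μM, for 72 h at 37° C. ATPlite luminescence read; survival rate = treated RLU/control RLU × 100%.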

CSc1nccc(N2CCC(N(C)Cc3c(Cl)cccc3Cl)CC2)n1 [Example 49, N-methyl-N-(2,6-dichlorobenzyl)-N-[1-(2-methylthiopyrimidin-4-yl)piperidin-4-yl]amine] showed a Survival rate ([1]; 0.016 μM) of 91.3%, a Survival rate ([1]; 0.063 μM) of 82% and a Survival rate ([1]; 0.25 μM) of 70.5%. For the same compound, the Survival rate ([1]; 1 μM) was 19.4%, the Survival rate ([1]; 4 μM) was 12.8% and the Survival rate ([2]; 0.016 μM) was 98.4%. For the same compound, the Survival rate ([2]; 0.063 μM) was 98.3%, the Survival rate ([2]; 0.25 μM) was 94.2% and the Survival rate ([2]; 1 μM) was 47.9%. It also gave a Survival rate ([2]; 4 μM) of 19.3%, a Survival rate ([3]; 0.016 μM) of 99.9% and a Survival rate ([3]; 0.063 μM) of 95.1%. It also gave a Survival rate ([3]; 0.25 μM) of 95.2%, a Survival rate ([3]; 1 μM) of 60.5% and a Survival rate ([3]; 4 μM) of 40.1%. For the same compound, the Survival rate ([4]; 0.016 μM) was 98.5%, the Survival rate ([4]; 0.063 μM) was 97.3% and the Survival rate ([4]; 0.25 μM) was 92.4%. It also gave a Survival rate ([4]; 1 μM) of 79.8%, a Survival rate ([4]; 4 μM) of 48.4% and a Survival rate ([5]; 0.016 μM) of 102.8%. The Survival rate ([5]; 0.063 μM) was 102.4%, the Survival rate ([5]; 0.25 μM) was 95.1% and the Survival rate ([5]; 1 μM) was 44%. The Survival rate ([5]; 4 μM) was 17.3%, the Survival rate ([6]; 0.016 μM) was 98.1% and the Survival rate ([6]; 0.063 μM) was 94.2%. For the same compound, the Survival rate ([6]; 0.25 μM) was 95.8%, the Survival rate ([6]; 1 μM) was 83.9% and the Survival rate ([6]; 4 μM) was 4.1%. The Survival rate ([7]; 0.016 μM) was 101.8%, the Survival rate ([7]; 0.063 μM) was 96.2% and the Survival rate ([7]; 0.25 μM) was 82.1%. It also gave a Survival rate ([7]; 1 μM) of 9.5%, a Survival rate ([7]; 4 μM) of 2.4% and a Survival rate ([8]; 0.016 μM) of 100.6%. It also gave a Survival rate ([8]; 0.063 μM) of 100.1%, a Survival rate ([8]; 0.25 μM) of 94.8% and a Survival rate ([8]; 1 μM) of 80.8%. For the same compound, the Survival rate ([8]; 4 μM) was 41.1%, the Survival rate ([9]; 0.016 μM) was 99.1% and the Survival rate ([9]; 0.063 μM) was 97.5%. For the same compound, the Survival rate ([9]; 0.25 μM) was 93.8%, the Survival rate ([9]; 1 μM) was 64.4% and the Survival rate ([9]; 4 μM) was 44.3%. It also gave a Survival rate ([10]; 0.016 μM) of 96.3%, a Survival rate ([10]; 0.063 μM) of 91% and a Survival rate ([10]; 0.25 μM) of 84.7%. It also gave a Survival rate ([10]; 1 μM) of 63.9%, a Survival rate ([10]; 4 μM) of 25.1% and a Survival rate ([11]; 0.016 μM) of 89.5%. It also gave a Survival rate ([11]; 0.063 μM) of 74.1%, a Survival rate ([11]; 0.25 μM) of 65.6% and a Survival rate ([11]; 1 μM) of 42.8%. It also gave a Survival rate ([11]; 4 μM) of 26%, a Survival rate ([12]; 0.016 μM) of 97.6% and a Survival rate ([12]; 0.063 μM) of 97.4%. For the same compound, the Survival rate ([12]; 0.25 μM) was 92.8%, the Survival rate ([12]; 1 μM) was 33.1% and the Survival rate ([12]; 4 μM) was 22.9%. The IC50 [13] was 700 nM and the inhibition at 5 µM ([13]; test sample 5 μM, 72 hours, read-out: Inhibitory Rate % BT/Lap^R1.0) was 58.8%.
